In US20230374015A1, “INHIBITORS OF FIBROBLAST GROWTH FACTOR RECEPTOR KINASES” (Kinnate Biopharma Inc., priority 2020, published 2023):

What follows are compounds tested against FGFR2 (Homo sapiens, UniProt P21802) (assay: FGFR2 Kinase Protocol - Condition 2 (Reaction Biology HotSpot radiometric kinase assay, no preincubation)). Conditions: poly[Glu:Tyr] (4:1) 0.2 mg/ml, ATP 100 microM, 2 hr room temperature.
Type: biochemical
Outline: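 Ten-point, 3-fold compound dilutions were tested against wildtype or V564F FGFR2 with 100 µM ATP (33P-labelled), no preincubation, and 0.2 mg/ml poly[Glu:Tyr] (4:1) substrate. After 2 hr at room temperature, incorporation was read on P81 filter paper; IC50 fitted from activity remaining relative to vehicle.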

Sequence of FGFR2 (P21802 22-821): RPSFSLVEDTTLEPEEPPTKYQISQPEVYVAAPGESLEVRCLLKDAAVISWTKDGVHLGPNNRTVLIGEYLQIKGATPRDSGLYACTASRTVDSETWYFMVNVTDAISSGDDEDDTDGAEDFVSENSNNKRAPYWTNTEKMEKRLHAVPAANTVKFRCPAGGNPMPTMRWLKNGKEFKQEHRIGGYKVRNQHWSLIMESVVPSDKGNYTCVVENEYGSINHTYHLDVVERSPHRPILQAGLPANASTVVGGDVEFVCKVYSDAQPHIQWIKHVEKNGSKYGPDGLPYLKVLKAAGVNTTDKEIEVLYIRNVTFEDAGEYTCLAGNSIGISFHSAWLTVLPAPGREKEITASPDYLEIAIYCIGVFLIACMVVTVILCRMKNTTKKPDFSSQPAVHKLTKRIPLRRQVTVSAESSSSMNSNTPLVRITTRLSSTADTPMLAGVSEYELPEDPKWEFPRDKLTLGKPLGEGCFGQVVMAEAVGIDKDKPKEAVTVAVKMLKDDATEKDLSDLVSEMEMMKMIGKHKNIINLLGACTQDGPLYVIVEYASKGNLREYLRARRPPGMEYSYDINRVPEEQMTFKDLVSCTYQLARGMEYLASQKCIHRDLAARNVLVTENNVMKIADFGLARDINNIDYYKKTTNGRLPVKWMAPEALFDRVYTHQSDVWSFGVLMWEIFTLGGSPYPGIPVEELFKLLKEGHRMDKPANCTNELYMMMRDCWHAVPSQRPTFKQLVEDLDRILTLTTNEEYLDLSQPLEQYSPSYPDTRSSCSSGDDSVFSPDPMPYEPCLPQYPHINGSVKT

IC50, ≤ 100 nM:
C=CC(=O)N1C[C@@H](n2nc(C#Cc3cc4ncn(C)c4cc3Cl)c3c(N)ncnc32)C[C@@H]1C [Example 164, 1-((2S,4S)-4-(4-amino-3-((6-chloro-1-methyl-1H-benzo[d]imidazol-5-yl)ethynyl)-1H-pyrazolo[3,4-d]pyrimidin-1-yl)-2-methylpyrrolidin-1-yl)prop-2-en-1-one]
C=CC(=O)N1C[C@@H](n2nc(C#Cc3cc4ncn(C)c4cc3F)c3c(N)nccc32)C[C@@H]1C [Example 165, 1-((2S,4S)-4-(4-amino-3-((6-fluoro-1-methyl-1H-benzo[d]imidazol-5-yl)ethynyl)-1H-pyrazolo[4,3-c]pyridin-1-yl)-2-methylpyrrolidin-1-yl)prop-2-en-1-one]
C=CC(=O)N1C[C@@H](n2nc(C#Cc3cc4ncn(CC)c4cc3F)c3c(N)nccc32)C[C@@H]1C [Example 166, 1-((2S,4S)-4-(4-amino-3-((1-ethyl-6-fluoro-1H-benzo[d]imidazol-5-yl)ethynyl)-1H-pyrazolo[4,3-c]pyridin-1-yl)-2-methylpyrrolidin-1-yl)prop-2-en-1-one]
C=CC(=O)N1C[C@@H](n2nc(C#Cc3cc4ncn(C)c4cc3Cl)c3c(N)nccc32)C[C@@H]1C [Example 167, 1-((2S,4S)-4-(4-amino-3-((6-chloro-1-methyl-1H-benzo[d]imidazol-5-yl)ethynyl)-1H-pyrazolo[4,3-c]pyridin-1-yl)-2-methylpyrrolidin-1-yl)prop-2-en-1-one]
C=CC(=O)N1C[C@@H](n2nc(C#Cc3cc4ncn(CC)c4cc3Cl)c3c(N)ncnc32)C[C@@H]1C [Example 168, 1-((2S,4S)-4-(4-amino-3-((1-ethyl-6-chloro-1H-benzo[d]imidazol-5-yl)ethynyl)-1H-pyrazolo[3,4-d]pyrimidin-1-yl)-2-methylpyrrolidin-1-yl)prop-2-en-1-one]
C=CC(=O)N1C[C@@H](n2nc(C#Cc3cc4ncn(CC)c4cc3Cl)c3c(N)nccc32)C[C@@H]1C [Example 169, 1-((2S,4S)-4-(4-amino-3-((6-chloro-1-ethyl-1H-benzo[d]imidazol-5-yl)ethynyl)-1H-pyrazolo[4,3-c]pyridin-1-yl)-2-methylpyrrolidin-1-yl)prop-2-en-1-one]
C=CC(=O)N1C[C@@H](n2nc(C#Cc3cc4ncn(CC)c4cc3F)c3c(N)ncnc32)C[C@@H]1C(F)F [Example 170, 1-((2R,4S)-4-(4-amino-3-((1-ethyl-6-fluoro-1H-benzo[d]imidazol-5-yl)ethynyl)-1H-pyrazolo[3,4-d]pyrimidin-1-yl)-2-(difluoromethyl)pyrrolidin-1-yl)prop-2-en-1-one]
C=CC(=O)N1C[C@@H](n2nc(C#Cc3cc4ncn(CC)c4cc3F)c3c(N)nccc32)C[C@@H]1C(F)F [Example 171, 1-((2R,4S)-4-(4-amino-3-((1-ethyl-6-fluoro-1H-benzo[d]imidazol-5-yl)ethynyl)-1H-pyrazolo[4,3-c]pyridin-1-yl)-2-(difluoromethyl)pyrrolidin-1-yl)prop-2-en-1-one]
C=CC(=O)N1C[C@@H](n2nc(C#Cc3cc4ncn(C)c4cc3Cl)c3c(N)nccc32)C[C@@H]1C(F)F [Example 172, 1-((2R,4S)-4-(4-amino-3-((6-chloro-1-methyl-1H-benzo[d]imidazol-5-yl)ethynyl)-1H-pyrazolo[4,3-c]pyridin-1-yl)-2-(difluoromethyl)pyrrolidin-1-yl)prop-2-en-1-one]
C=CC(=O)N1C[C@@H](n2nc(C#Cc3cc4ncn(CC)c4c(F)c3Cl)c3c(N)ncnc32)C[C@@H]1CC#N [Example 173, 2-[(2R,4S)-4-{4-Amino-3-[2-(6-chloro-1-ethyl-7-fluoro-1,3-benzodiazol-5-yl)ethynyl]pyrazolo[3,4-d]pyrimidin-1-yl}-1-(prop-2-enoyl)pyrrolidin-2-yl]acetonitrile]
C=CC(=O)N1C[C@@H](n2nc(C#Cc3cc4ncn(C)c4c(F)c3Cl)c3c(N)nccc32)C[C@@H]1CC#N [Example 174, 2-[(2R,4S)-4-{4-Amino-3-[2-(6-chloro-7-fluoro-1-methyl-1,3-benzodiazol-5-yl)ethynyl]pyrazolo[4,3-c]pyridin-1-yl}-1-(prop-2-enoyl)pyrrolidin-2-yl]acetonitrile]
C=CC(=O)N1C[C@@H](n2nc(C#Cc3cc4ncn(C)c4cc3F)c3c(N)ncnc32)C[C@@H]1C(F)F [Example 177, 1-((2R,4S)-4-(4-amino-3-((6-fluoro-1-methyl-1H-benzo[d]imidazol-5-yl)ethynyl)-1H-pyrazolo[3,4-d]pyrimidin-1-yl)-2-(difluoromethyl)pyrrolidin-1-yl)prop-2-en-1-one]
C=CC(=O)N1C[C@@H](n2nc(C#Cc3cc4ncn(C5CC5)c4cc3F)c3c(N)ncnc32)C[C@@H]1C(F)F [Example 178, 1-((2R,4S)-4-(4-amino-3-((1-cyclopropyl-6-fluoro-1H-benzo[d]imidazol-5-yl)ethynyl)-1H-pyrazolo[3,4-d]pyrimidin-1-yl)-2-(difluoromethyl)pyrrolidin-1-yl)prop-2-en-1-one]
C=CC(=O)N1C[C@@H](n2nc(C#Cc3cc4ncn(C)c4cc3Cl)c3c(N)ncnc32)C[C@@H]1C(F)F [Example 179, 1-((2R,4S)-4-(4-amino-3-((6-chloro-1-methyl-1H-benzo[d]imidazol-5-yl)ethynyl)-1H-pyrazolo[3,4-d]pyrimidin-1-yl)-2-(difluoromethyl)pyrrolidin-1-yl)prop-2-en-1-one]
C=CC(=O)N1C[C@@H](n2nc(C#Cc3cc4ncn(CC)c4cc3Cl)c3c(N)ncnc32)C[C@@H]1C(F)F [Example 180, 1-((2R,4S)-4-(4-amino-3-((6-chloro-1-ethyl-1H-benzo[d]imidazol-5-yl)ethynyl)-1H-pyrazolo[3,4-d]pyrimidin-1-yl)-2-(difluoromethyl)pyrrolidin-1-yl)prop-2-en-1-one]
C=CC(=O)N1C[C@@H](n2nc(C#Cc3cc4ncn(C)c4cc3F)c3c(N)nccc32)C[C@@H]1C(F)F [Example 181, 1-((2R,4S)-4-(4-amino-3-((6-fluoro-1-methyl-1H-benzo[d]imidazol-5-yl)ethynyl)-1H-pyrazolo[4,3-c]pyridin-1-yl)-2-(difluoromethyl)pyrrolidin-1-yl)prop-2-en-1-one]
C=CC(=O)N1C[C@@H](n2nc(C#Cc3cc4ncn(C5CC5)c4cc3F)c3c(N)nccc32)C[C@@H]1C(F)F [Example 182, 1-((2R,4S)-4-(4-amino-3-((1-cyclopropyl-6-fluoro-1H-benzo[d]imidazol-5-yl)ethynyl)-1H-pyrazolo[4,3-c]pyridin-1-yl)-2-(difluoromethyl)pyrrolidin-1-yl)prop-2-en-1-one]
C=CC(=O)N1C[C@@H](n2nc(C#Cc3cc4ncn(CC)c4cc3Cl)c3c(N)nccc32)C[C@@H]1C(F)F [Example 183, 1-((2R,4S)-4-(4-amino-3-((6-chloro-1-ethyl-1H-benzo[d]imidazol-5-yl)ethynyl)-1H-pyrazolo[4,3-c]pyridin-1-yl)-2-(difluoromethyl)pyrrolidin-1-yl)prop-2-en-1-one]
C=CC(=O)N1C[C@@H](n2nc(C#Cc3cc4ncn(C)c4cc3F)c3c(N)ncnc32)C[C@@H]1CF [Example 184, 1-[(2R,4S)-4-{4-Amino-3-[2-(6-fluoro-1-methyl-1,3-benzodiazol-5-yl)ethynyl]pyrazolo[3,4-d]pyrimidin-1-yl}-2-(fluoromethyl)pyrrolidin-1-yl]prop-2-en-1-one]
C=CC(=O)N1C[C@@H](n2nc(C#Cc3cc4ncn(C)c4cc3F)c3c(N)nccc32)C[C@@H]1CF [Example 185, 1-[(2R,4S)-4-{4-Amino-3-[2-(6-fluoro-1-methyl-1,3-benzodiazol-5-yl)ethynyl]pyrazolo[4,3-c]pyridin-1-yl}-2-(fluoromethyl)pyrrolidin-1-yl]prop-2-en-1-one]
C=CC(=O)N1C[C@@H](n2cc(C#Cc3cc4ncn(C)c4cc3F)c3c(N)ncnc32)C[C@@H]1CF [Example 186, 1-((2R,4S)-4-(4-Amino-5-((6-fluoro-1-methyl-1H-benzo[d]imidazol-5-yl)ethynyl)-7H-pyrrolo[2,3-d]pyrimidin-7-yl)-2-(fluoromethyl)pyrrolidin-1-yl)prop-2-en-1-one]
C=CC(=O)N1C[C@@H](n2nc(C#Cc3cc4ncn(C5CC5)c4cc3Cl)c3c(N)ncnc32)C[C@@H]1CC#N [Example 187, 2-[(2R,4S)-4-{4-Amino-3-[2-(6-chloro-1-cyclopropyl-1,3-benzodiazol-5-yl)ethynyl]pyrazolo[3,4-d]pyrimidin-1-yl}-1-(prop-2-enoyl)pyrrolidin-2-yl]acetonitrile]
C=CC(=O)N1C[C@@H](n2nc(C#Cc3ccc4c(c3)ncn4C3CC3)c3c(N)ncnc32)C[C@@H]1CC#N [Example 188, 2-[(2R,4S)-4-{4-Amino-3-[2-(1-cyclopropyl-1,3-benzodiazol-5-yl)ethynyl]pyrazolo[3,4-d]pyrimidin-1-yl}-1-(prop-2-enoyl)pyrrolidin-2-yl]acetonitrile]
C=CC(=O)N1CC[C@H](n2nc(C#Cc3cc4nc(C)n(C)c4c(F)c3F)c3c(N)ncnc32)C1 [Example 189, 1-[(3S)-3-{4-Amino-3-[2-(6,7-difluoro-1,2-dimethyl-1,3-benzodiazol-5-yl)ethynyl]pyrazolo[3,4-d]pyrimidin-1-yl}pyrrolidin-1-yl]prop-2-en-1-one]
C=CC(=O)N1CC[C@H](n2nc(C#Cc3cc4ncn(C5CC5)c4c(F)c3Cl)c3c(N)ncnc32)C1 [Example 190, 1-[(3S)-3-{4-Amino-3-[2-(6-chloro-1-cyclopropyl-7-fluoro-1,3-benzodiazol-5-yl)ethynyl]pyrazolo[3,4-d]pyrimidin-1-yl}pyrrolidin-1-yl]prop-2-en-1-one]
